Results from publication PMC10216263, “Favorable Preclinical Pharmacological Profile of a Novel Antimalarial Pyrrolizidinylmethyl Derivative of 4-amino-7-chloroquinoline with Potent In Vitro and In Vivo Activities” (Biomolecules, 2023).

Experiments:
[1] = tested on: human hepatocytes; assay: Metabolic profiling in hepatocytes; assay type: in vitro ADME; conditions: human hepatocytes, MG3 10 µM, 1 h incubation, semi-quantitative
Procedure: (§1) For metabolite profiling, MG3.2HCl (10 µM) was incubated with mouse, rat, dog, monkey, and human hepatocytes (300,000 cells/mL for the mouse and 1 × 10^6 cells/mL for the other species) in Leibovitz L-15 medium, at 37 °C. Incubations were performed in a 12-well plate under shaking. Aliquots of the incubation samples, together with a control in medium alone, were taken at t = 0 and 60 min; the metabolism was stopped by the addition of an equal volume of chilled ACN and the samples were centrifuged at 1100 rpm for 20 min. The supernatant was stored at −20 °C until analysis. The analyses were performed using an HPLC system (Agilent) online with a photodiode array (PDA) detector (Agilent) coupled to a Mass Spectrometer Q-TOF 2 (Waters), ESI positive, following the method reported in Table 1.
(§2) The software utilized for searching the accurate masses of possible metabolites was Metabolynx, version 4.1 (Waters Corporation, Milford, MA, USA), with a mass window of 40 mDa. Samples were then re-run in MS/MS mode by selecting the masses of possible metabolites found. The collision energy used to obtain MS/MS data was 25 eV. The proposed identity of metabolites was based on their accurate mass (using LockSpray correction), with an accuracy of +/−5 mDa. MS/MS analyses were performed to verify that peaks were drug-related and to obtain structural information from the fragment ions formed. The structures of some metabolites are proposed. The approximate relative amounts of parent and metabolites were determined from the absolute areas taken from a selected ion chromatogram at the metabolite masses with a mass window of 0.04 Da.

[2] = tested on: rat hepatocytes; assay: Metabolic profiling in hepatocytes; assay type: in vitro ADME; conditions: rat hepatocytes, MG3 10 µM, 1 h incubation, semi-quantitative
Procedure: as §1, §2

[3] = Tissue distribution in rat; assay type: in vivo, female Sprague Dawley rats; conditions: single oral 120 mg/kg
Procedure: Female Sprague Dawley rats (Charles River, Italy) (2–4/time points) were orally administered with a single dose of 120 mg/kg of MG3 at a constant dose volume of 10 mL/kg; dose and gender were selected based on previous toxicological studies. Two female rats were included as untreated controls. Plasma samples and tissues, i.e., adrenal glands, hearth, kidney, liver, lung, lymph nodes, spleen, ovaries, thymus, and skeletal muscle were collected at 4, 24, 48, 72 and 96 h after administration by animals killed by exsanguination under sodium thiopental anesthesia. Blood was put in heparinized plastic tubes kept on ice-water bath, then centrifuged (10 min, 1200 rpm, +4 °C). One aliquot of about 100 µL of plasma was stored at –80 °C until analysis. Samples of selected organs/tissues were collected, put in plastic cassettes and frozen over liquid nitrogen. Then, organs were thawed out, weighted, and sliced. Homogenates were prepared with ultrasonication on ice in Dulbecco buffer (10 μL/mg of tissue). The addition of 400 μL of methanol to 10 μL of homogenate in a 96-well plate allowed the precipitation of proteins. After capping and vortex mixing, the plate was centrifuged for 15 min at 3700 rpm at 6 °C, and an aliquot of 360 μL of supernatant transferred to a new plate and dried down under nitrogen stream (40 °C). The extract was reconstituted in 150 μL of 10 mM ammonium formate pH 3.5: methanol (90:10, v/v) and analyzed using the LC-MS-MS method, as described in Pharmacokinetic studies in rat paragraph. 1 ng/mL and 10 ng/g were the lower limits of quantitation for plasma and tissue, respectively.

[4] = 7-day oral dose range finding (DRF) and systemic exposure in rats; assay type: in vivo, Sprague Dawley rats
Procedure: Seven days oral DRF in rats and dog, and five days oral DRF in Non-Human Primates (NHP) were performed using Sprague Dawley rats (n = 3/time point) of both sexes, one male and one female dog Beagle (Marshall/Green Hill) and one male and one female monkeys/Cynomolgus (Noveprim Ltd., Mahebourg Mauritius,). MG3 was administered as oral suspension in 0.5% methocel in water (400 cP viscosity) at the following doses: 30, 60 and 120 mg/kg/day for 7 days (rat), 15 and 30 mg/kg/days for 7 days (dog) and 25, 50 and 75 mg/kg/day (NHP). No Observed Effects Levels (NOEL) were determined. Mortality, behavior, and general conditions were observed daily. Body weight was recorded pre-test, and on Days 1, 4 and 7. Food consumption was recorded from Days 1 to 4 and 4 to 7. Hematological and clinical chemistry examinations were performed on Day 8. All animals were sacrificed under anesthesia at the end of the treatment period on Day 8 of study. Post-mortem examinations included necropsy, collection, and histological examination performed of selected organs/tissues.
Systemic exposure was measured in three additional rats/sex/group at different time-points up to 24 and 48 h after the treatment and on Days 1 and 7, respectively.

[5] = tested on: Salmonella typhimurium TA98, TA100 and Escherichia coli WP2 uvrA; assay: Bacterial Reverse Mutation Assay, overall; conditions: with or without rat liver S9, up to 1000 per plate
Procedure: using the preincubation method (30 min, 37°C) with and without phenobarbital-5,6-benzoflavone induced
MG3 was dissolved in distilled water (H2O) at
the maximum concentration of 40 mg/mL and tested in a preliminary range-finding test in all strains of
metabolic activation to determine the toxicity of the compound.

[6] = tested on: P. falciparum W2 (CQ-R); parameters: method as in PMID 18538567; conditions: 72 h incubation, pLDH method, mean of 3 experiments; cited from earlier work
[7] = tested on: P. falciparum K1 (CQ-R); assay: In vitro antimalarial activity, [3H]-hypoxanthine incorporation (LSHTM); assay type: cell-based; conditions: Plasmodium falciparum, K1; 72 h, [3H]-hypoxanthine incorporation, mean of 3 experiments; read-out: P. falciparum IC50 nM, K1 (CQ-R)
[8] = biological target: CYP1A2 (Homo sapiens, UniProt P05177); assay: in vitro
[9] = male, Sprague Dawley, rat, in vivo, po, 30 mg/kg/day

Chain of CYP1A2 (P05177 whole entry): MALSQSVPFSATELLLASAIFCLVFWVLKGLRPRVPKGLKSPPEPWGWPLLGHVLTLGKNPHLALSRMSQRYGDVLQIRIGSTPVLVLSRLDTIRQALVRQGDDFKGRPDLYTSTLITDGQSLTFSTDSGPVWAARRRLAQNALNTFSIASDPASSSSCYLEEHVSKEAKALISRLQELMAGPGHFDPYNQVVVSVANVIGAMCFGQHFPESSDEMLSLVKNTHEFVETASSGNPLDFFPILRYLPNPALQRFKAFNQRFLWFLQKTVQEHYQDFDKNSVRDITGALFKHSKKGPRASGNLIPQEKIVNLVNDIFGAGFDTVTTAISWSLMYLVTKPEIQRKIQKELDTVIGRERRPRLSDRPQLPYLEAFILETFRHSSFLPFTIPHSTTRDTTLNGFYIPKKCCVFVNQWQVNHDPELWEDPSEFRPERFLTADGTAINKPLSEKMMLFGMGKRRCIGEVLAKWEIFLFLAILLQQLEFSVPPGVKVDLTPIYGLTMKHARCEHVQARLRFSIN

In the case of `Clc1ccc2c(NCC34CCCN3CCC4)ccnc2c1` [MG3, 7-Chloro-N-((hexahydro-1H-pyrrolizin-7a-yl)methyl)quinolin-4-amine], the “% of Total Drug Related Material” value [1] is reported as 82%, the “% of Total Drug Related Material” value [2] is reported as 53% and the “tissues with the highest concentration” value [3] is reported as “lungs and ovaries”. The “concentration in tissues versus plasma” value ([3]; all time points 4–96 h) was “higher than in plasma”, the “detected in all the analyzed tissues up to” value ([3]; post dose) was 96 h and the mortality ([4]; 30, 60, and 120 mg/kg/day oral, 7 days) was “no mortality occurred”. For the same molecule, the MTD at 7 days ([4]; both sexes, Sprague Dawley, rat, in vivo, oral, 7 days, rats, read-out: maximum tolerated dose (MTD)) was 120 mg/kg/day, the AUC(0-t) ([4]; female, Sprague Dawley, rat, in vivo, po, 30 mg/kg/day, AUC0–24) was 2560 ± 650 ng·h/mL and the AUC(0-t) ([4]; female, Sprague Dawley, rat, in vivo, po, 30 mg/kg/day, AUC0–48) was 3800 ± 1000 ng·h/mL. It also gave a Cmax ([4]; female, Sprague Dawley, rat, in vivo, po, 30 mg/kg/day) of 149 ± 34 ng/mL, an AUC(0-t) ([4]; female, Sprague Dawley, rat, in vivo, po, 60 mg/kg/day, AUC0–24) of 8630 ± 870 ng·h/mL and an AUC(0-t) ([4]; female, Sprague Dawley, rat, in vivo, po, 60 mg/kg/day, AUC0–48) of 15000 ± 900 ng·h/mL. For the same molecule, the Cmax ([4]; female, Sprague Dawley, rat, in vivo, po, 60 mg/kg/day) was 646 ± 201 ng/mL, the AUC(0-t) ([4]; female, Sprague Dawley, rat, in vivo, po, 120 mg/kg/day, AUC0–24) was 19400 ± 7500 ng·h/mL and the AUC(0-t) ([4]; female, Sprague Dawley, rat, in vivo, po, 120 mg/kg/day, AUC0–48) was 29800 ± 9600 ng·h/mL. For the same molecule, the Cmax ([4]; female, Sprague Dawley, rat, in vivo, po, 120 mg/kg/day) was 1570 ± 270 ng/mL, the AUC(0-t) ([4]; female, Sprague-Dawley, rat, in vivo, po, 30 mg/kg/day, AUC0–24) was 2530 ± 500 ng·h/mL and the AUC(0-t) ([4]; female, Sprague-Dawley, rat, in vivo, po, 60 mg/kg/day, AUC0–24) was 4740 ± 770 ng·h/mL. It also gave a Cmax ([4]; female, Sprague-Dawley, rat, in vivo, po, 60 mg/kg/day) of 259 ± 46 ng/mL, an AUC(0-t) ([4]; female, Sprague-Dawley, rat, in vivo, po, 120 mg/kg/day, AUC0–24) of 5210 ± 1600 ng·h/mL and a Cmax ([4]; female, Sprague-Dawley, rat, in vivo, po, 120 mg/kg/day) of 411 ± 288 ng/mL. For the same molecule, the “AUC0–24” value [4, 9] was 1880 ± 190 ng·h/mL, the AUC(0-t) ([4]; male, Sprague Dawley, rat, in vivo, po, 30 mg/kg/day, AUC0–24) was 1880 ± 380 ng·h/mL and the AUC(0-t) ([4]; male, Sprague Dawley, rat, in vivo, po, 30 mg/kg/day, AUC0–48) was 2460 ± 550 ng·h/mL. It also gave a Cmax [4, 9] of 140 ± 30 ng/mL, an AUC(0-t) ([4]; male, Sprague Dawley, rat, in vivo, po, 60 mg/kg/day, AUC0–24) of 5090 ± 450 ng·h/mL and an AUC(0-t) ([4]; male, Sprague Dawley, rat, in vivo, po, 60 mg/kg/day, AUC0–48) of 7330 ± 310 ng·h/mL. For the same molecule, the Cmax ([4]; male, Sprague Dawley, rat, in vivo, po, 60 mg/kg/day) was 321 ± 50 ng/mL, the AUC(0-t) ([4]; male, Sprague Dawley, rat, in vivo, po, 120 mg/kg/day, AUC0–24) was 17400 ± 3200 ng·h/mL and the AUC(0-t) ([4]; male, Sprague Dawley, rat, in vivo, po, 120 mg/kg/day, AUC0–48) was 27500 ± 3900 ng·h/mL. The Cmax ([4]; male, Sprague Dawley, rat, in vivo, po, 120 mg/kg/day) was 1090 ± 260 ng/mL, the AUC(0-t) ([4]; male, Sprague-Dawley, rat, in vivo, po, 60 mg/kg/day, AUC0–24) was 3530 ± 180 ng·h/mL and the Cmax ([4]; male, Sprague-Dawley, rat, in vivo, po, 60 mg/kg/day) was 220 ± 10 ng/mL. The AUC(0-t) ([4]; male, Sprague-Dawley, rat, in vivo, po, 120 mg/kg/day, AUC0–24) was 3840 ± 700 ng·h/mL, the Cmax ([4]; male, Sprague-Dawley, rat, in vivo, po, 120 mg/kg/day) was 209 ± 49 ng/mL and the food consumption ([4]; rat, in vivo) was “Minimal to moderate decrease in food consumption”. The “clinical chemistry on Day 8” value ([4]; rat, in vivo, 120 mg/kg/day) was “slight to moderate increase in ALT and AST”, the “systemic exposure in females higher than in males” value ([4]; rat, in vivo, po) was “about two-fold” and the “mortality and liver toxicity” value ([4]; up to 60 mg/kg, 7-day oral toxicity study) was “no mortality and no clinical evidence of liver toxicity”. The mutagenicity judgement [5] was “non-mutagenic”, the IC50 [6] was 28.9 nM and the IC50 [7] was 21.2 nM. The inhibition at 3 µM [8] was 12.1 ± 1.2%.
